From patent US20130012432A1, “Peptides for Treatment of Obesity” (Novo Nordisk A/S, priority 2010, published 2013)
≈ marks a conversion by molar mass, not a printed value. Positions of bridges follow the written chain, without caps; N, C: chain ends. Non-standard residues stand in square brackets, D forms with d. Residues, ends and D or L forms follow the SMILES beside them. Groups on a side chain read outwards from the residue. *: point of attachment. Palmitoyl(16-(5-tetrazolyl)) = O=C(CCCCCCCCCCCCCCCc1nnn[nH]1)*; Lys(CH2CO2H)2 = N[C@@H](CCCCN(CC(=O)O)CC(=O)O)C(=O)O; C18 diacid = O=C(O)CCCCCCCCCCCCCCCCC(=O)*; C16 diacid = O=C(O)CCCCCCCCCCCCCCC(=O)*; Orn = NCCC[C@H](N)C(=O)O; Dab = NCC[C@H](N)C(=O)O; Dap = NC[C@H](N)C(=O)O; AEEA = NCCOCCOCC(=O)O

Assay: physchem
Experimental: From a stock solution in vehicle, either H2O or 10 mM phosphate, containing 1 mg (as weighed) compound per ml, 8-11 aliquots are withdrawn and pH-adjusted individually with HCl/NaOH, to cover the whole pH range.

SMILES: CC(=O)N[C@H]1CCCNC(=O)C[C@@H](C(=O)N2CCC[C@H]2C(=O)N2CCC[C@H]2C(=O)N[C@@H](CCCNC(=N)N)C(=O)N[C@@H](CCC(=O)O)C(=O)N[C@@H](CCCCN(CC(=O)O)CC(=O)O)C(=O)N[C@@H](CCCCNC(=O)COCCOCCNC(=O)CCCCCCCCCCCCCCCc2nnn[nH]2)C(N)=O)NC(=O)[C@H](Cc2c[nH]c3ccccc23)NC(=O)[C@H](CCCNC(=N)N)NC(=O)[C@@H](Cc2ccccc2)NC(=O)[C@H](Cc2c[nH]cn2)NC1=O [Example 19, Ac-c[Orn-His-D-Phe-Arg-Trp-Asp]-Pro-Pro-Arg-Glu-Lys(biscarboxymethyl)-Lys[(2-{2-[16-(tetrazol-5-yl)hexadecanoylamino]ethoxy}ethoxy)acetyl]-NH2] (Ac-[Orn]H[dF]RWDPPRE[Lys(CH2CO2H)2]K([AEEA-Palmitoyl(16-(5-tetrazolyl))])-NH2; lactam 1-6)
- solubility (pH 6.3, Solubility Conc.): 26 µM (≈ 57.2 µg/mL)
- solubility (pH 6.7, Solubility Conc.): 38 µM (≈ 83.6 µg/mL)
- solubility (pH 6.9, Solubility Conc.): 70 µM (≈ 154 µg/mL)
- solubility (pH 7.2, Solubility Conc.): 433 µM (≈ 953 µg/mL)
- solubility (pH 7.3, Solubility Conc.): 447 µM (≈ 984 µg/mL)
- solubility (pH 7.5, Solubility Conc.): 474 µM (≈ 1040 µg/mL)
- solubility (pH 7.7, Solubility Conc.): 517 µM (≈ 1140 µg/mL)
- solubility (pH 7.9, Solubility Conc.): 441 µM (≈ 970 µg/mL)

SMILES: CC(=O)N[C@H]1CCNC(=O)C[C@@H](C(=O)N2CCC[C@H]2C(=O)N2CCC[C@H]2C(=O)N[C@@H](CCCNC(=N)N)C(=O)N[C@@H](CC(=O)O)C(=O)N[C@@H](CCCCN(CC(=O)O)CC(=O)O)C(=O)N[C@@H](CCCCNC(=O)COCCOCCNC(=O)CCCCCCCCCCCCCCCc2nnn[nH]2)C(N)=O)NC(=O)[C@H](Cc2c[nH]c3ccccc23)NC(=O)[C@H](CCCNC(=N)N)NC(=O)[C@@H](Cc2ccccc2)NC(=O)[C@H](Cc2c[nH]cn2)NC1=O [Example 25, Ac-c[Dab-His-D-Phe-Arg-Trp-Asp]-Pro-Pro-Arg-Asp-Lys(biscarboxymethyl)-Lys[(2-{2-[16-(tetrazol-5-yl)hexadecanoylamino]ethoxy}ethoxy)acetyl]-NH2] (Ac-[Dab]H[dF]RWDPPRD[Lys(CH2CO2H)2]K([AEEA-Palmitoyl(16-(5-tetrazolyl))])-NH2; lactam 1-6)
- solubility (pH 6, Solubility Conc.): 24 µM (≈ 52.1 µg/mL)
- solubility (pH 6.3, Solubility Conc.): 34 µM (≈ 73.9 µg/mL)
- solubility (pH 7, Solubility Conc.): 133 µM (≈ 289 µg/mL)
- solubility (pH 7.3, Solubility Conc.): 439 µM (≈ 954 µg/mL)
- solubility (pH 7.4, Solubility Conc.): 472 µM (≈ 1030 µg/mL)
- solubility (pH 7.5, Solubility Conc.): 479 µM (≈ 1040 µg/mL)
- solubility (pH 7.7, Solubility Conc.): 471 µM (≈ 1020 µg/mL)
- solubility (pH 8, Solubility Conc.): 498 µM (≈ 1080 µg/mL)

SMILES: CC(=O)N[C@H]1CC(=O)NCC[C@@H](C(=O)N2CCC[C@H]2C(=O)N2CCC[C@H]2C(=O)N[C@@H](CCCNC(=N)N)C(=O)N[C@@H](CC(=O)O)C(=O)N[C@@H](CCCCN(CC(=O)O)CC(=O)O)C(=O)N[C@@H](CCCCNC(=O)COCCOCCNC(=O)CCCCCCCCCCCCCCCc2nnn[nH]2)C(N)=O)NC(=O)[C@H](Cc2c[nH]c3ccccc23)NC(=O)[C@H](CCCNC(=N)N)NC(=O)[C@@H](Cc2ccccc2)NC(=O)[C@H](Cc2c[nH]cn2)NC1=O [Example 30, Ac-c[Asp-His-D-Phe-Arg-Trp-Dab]-Pro-Pro-Arg-Asp-Lys(biscarboxymethyl)-Lys[(2-{2-[16-(tetrazol-5-yl)hexadecanoylamino]ethoxy}ethoxy)acetyl]-NH2] (Ac-DH[dF]RW[Dab]PPRD[Lys(CH2CO2H)2]K([AEEA-Palmitoyl(16-(5-tetrazolyl))])-NH2; lactam 1-6)
- solubility (pH 5.9, Solubility Conc.): 24 µM (≈ 52.1 µg/mL)
- solubility (pH 6.4, Solubility Conc.): 37 µM (≈ 80.4 µg/mL)
- solubility (pH 7, Solubility Conc.): 144 µM (≈ 313 µg/mL)
- solubility (pH 7.3, Solubility Conc.): 377 µM (≈ 819 µg/mL)
- solubility (pH 7.5, Solubility Conc.): 478 µM (≈ 1040 µg/mL)
- solubility (pH 7.6, Solubility Conc.): 493 µM (≈ 1070 µg/mL)
- solubility (pH 7.9, Solubility Conc.): 497 µM (≈ 1080 µg/mL)

SMILES: CC(=O)N[C@H]1CNC(=O)C[C@@H](C(=O)N2CCC[C@H]2C(=O)N2CCC[C@H]2C(=O)N[C@@H](CCCNC(=N)N)C(=O)N[C@@H](CC(=O)O)C(=O)N[C@@H](CCCCN(CC(=O)O)CC(=O)O)C(=O)N[C@@H](CCCCNC(=O)COCCOCCNC(=O)CCCCCCCCCCCCCCCc2nnn[nH]2)C(N)=O)NC(=O)[C@H](Cc2c[nH]c3ccccc23)NC(=O)[C@H](CCCNC(=N)N)NC(=O)[C@@H](Cc2ccccc2)NC(=O)[C@H](Cc2c[nH]cn2)NC1=O [Example 36, Ac-c[Dap-His-D-Phe-Arg-Trp-Asp]-Pro-Pro-Arg-Asp-Lys(biscarboxymethyl)-Lys[(2-{2-[16-(tetrazol-5-yl)hexadecanoylamino]ethoxy}ethoxy)acetyl]-NH2] (Ac-[Dap]H[dF]RWDPPRD[Lys(CH2CO2H)2]K([AEEA-Palmitoyl(16-(5-tetrazolyl))])-NH2; lactam 1-6)
- solubility (pH 5.7, Solubility Conc.): 17 µM (≈ 36.7 µg/mL)
- solubility (pH 6, Solubility Conc.): 18 µM (≈ 38.9 µg/mL)
- solubility (pH 6.5, Solubility Conc.): 28 µM (≈ 60.4 µg/mL)
- solubility (pH 7.1, Solubility Conc.): 87 µM (≈ 188 µg/mL)
- solubility (pH 7.4, Solubility Conc.): 261 µM (≈ 563 µg/mL)
- solubility (pH 7.5, Solubility Conc.): 488 µM (≈ 1050 µg/mL)
- solubility (pH 7.6, Solubility Conc.): 504 µM (≈ 1090 µg/mL)
- solubility (pH 7.9, Solubility Conc.): 514 µM (≈ 1110 µg/mL)
- solubility (pH 8.1, Solubility Conc.): 505 µM (≈ 1090 µg/mL)

SMILES: CC(=O)N[C@H]1CCCNC(=O)C[C@@H](C(=O)N2CCC[C@H]2C(=O)N2CCC[C@H]2C(=O)N[C@@H](CCCNC(=N)N)C(=O)N[C@@H](CCC(=O)O)C(=O)N[C@@H](CCCCN(CC(=O)O)CC(=O)O)C(=O)N[C@@H](CCCCNC(=O)COCCOCCNC(=O)CCCCCCCCCCCCCCC(=O)O)C(N)=O)NC(=O)[C@H](Cc2c[nH]c3ccccc23)NC(=O)[C@H](CCCNC(=N)N)NC(=O)[C@@H](Cc2ccccc2)NC(=O)[C@H](Cc2c[nH]cn2)NC1=O [Example 42, Ac-c[Orn-His-D-Phe-Arg-Trp-Asp]-Pro-Pro-Arg-Glu-Lys(biscarboxymethyl)-Lys({2-[2-(15-carboxypentadecanoylamino)ethoxy]ethoxy}acetyl)-NH2] (Ac-[Orn]H[dF]RWDPPRE[Lys(CH2CO2H)2]K([AEEA-C16 diacid])-NH2; lactam 1-6)
- solubility (pH 4.9, Solubility Conc.): 153 µM (≈ 331 µg/mL)
- solubility (pH 5.8, Solubility Conc.): 240 µM (≈ 519 µg/mL)
- solubility (pH 6.4, Solubility Conc.): 364 µM (≈ 787 µg/mL)
- solubility (pH 6.7, Solubility Conc.): 421 µM (≈ 910 µg/mL)
- solubility (pH 7, Solubility Conc.): 449 µM (≈ 971 µg/mL)
- solubility (pH 7.2, Solubility Conc.): 438 µM (≈ 947 µg/mL)
- solubility (pH 7.5, Solubility Conc.): 441 µM (≈ 954 µg/mL)
- solubility (pH 7.9, Solubility Conc.): 476 µM (≈ 1030 µg/mL)
- solubility (pH 8.1, Solubility Conc.): 417 µM (≈ 902 µg/mL)

SMILES: CC(=O)N[C@H]1CCC(=O)NCCC[C@@H](C(=O)N2CCC[C@H]2C(=O)N2CCC[C@H]2C(=O)N[C@@H](Cc2c[nH]cn2)C(=O)N[C@@H](CC(=O)O)C(=O)N[C@@H](CCCCN(CC(=O)O)CC(=O)O)C(=O)N[C@@H](CCCCNC(=O)COCCOCCNC(=O)CCCCCCCCCCCCCCCc2nnn[nH]2)C(N)=O)NC(=O)[C@H](Cc2c[nH]c3ccccc23)NC(=O)[C@H](CCCNC(=N)N)NC(=O)[C@@H](Cc2ccccc2)NC(=O)[C@H](Cc2c[nH]cn2)NC1=O [Example 43, Ac-c[Glu-His-D-Phe-Arg-Trp-Orn]-Pro-Pro-His-Asp-Lys(biscarboxymethyl)-Lys[(2-{2-[16-(tetrazol-5-yl)hexadecanoylamino]ethoxy}ethoxy)acetyl]-NH2] (Ac-EH[dF]RW[Orn]PPHD[Lys(CH2CO2H)2]K([AEEA-Palmitoyl(16-(5-tetrazolyl))])-NH2; lactam 1-6)
- solubility (pH 5.9, Solubility Conc.): 27 µM (≈ 58.9 µg/mL)
- solubility (pH 6.5, Solubility Conc.): 75 µM (≈ 164 µg/mL)
- solubility (pH 6.7, Solubility Conc.): 315 µM (≈ 687 µg/mL)
- solubility (pH 6.8, Solubility Conc.): 478 µM (≈ 1040 µg/mL)
- solubility (pH 7.2, Solubility Conc.): 478 µM (≈ 1040 µg/mL)
- solubility (pH 7.4, Solubility Conc.): 506 µM (≈ 1100 µg/mL)
- solubility (pH 7.7, Solubility Conc.): 487 µM (≈ 1060 µg/mL)
- solubility (pH 7.9, Solubility Conc.): 490 µM (≈ 1070 µg/mL)
- solubility (pH 8.1, Solubility Conc.): 493 µM (≈ 1080 µg/mL)

SMILES: CC(=O)N[C@H]1CCCNC(=O)C[C@@H](C(=O)N2CCC[C@H]2C(=O)N2CCC[C@H]2C(=O)N[C@@H](Cc2c[nH]cn2)C(=O)N[C@@H](CCC(=O)O)C(=O)N[C@@H](CCCCN(CC(=O)O)CC(=O)O)C(=O)N[C@@H](CCCCNC(=O)COCCOCCNC(=O)CCCCCCCCCCCCCCCCC(=O)O)C(N)=O)NC(=O)[C@H](Cc2c[nH]c3ccccc23)NC(=O)[C@H](CCCNC(=N)N)NC(=O)[C@@H](Cc2ccccc2)NC(=O)[C@H](Cc2c[nH]cn2)NC1=O [Example 46, Ac-c[Orn-His-D-Phe-Arg-Trp-Asp]-Pro-Pro-His-Glu-Lys(biscarboxymethyl)-Lys({2-[2-(17-carboxyheptadecanoylamino)ethoxy]ethoxy}acetyl)-NH2] (Ac-[Orn]H[dF]RWDPPHE[Lys(CH2CO2H)2]K([AEEA-C18 diacid])-NH2; lactam 1-6)
- solubility (pH 5, Solubility Conc.): 25 µM (≈ 54.3 µg/mL)
- solubility (pH 5.4, Solubility Conc.): 24 µM (≈ 52.1 µg/mL)
- solubility (pH 6.1, Solubility Conc.): 47 µM (≈ 102 µg/mL)
- solubility (pH 6.6, Solubility Conc.): 160 µM (≈ 347 µg/mL)
- solubility (pH 6.7, Solubility Conc.): 422 µM (≈ 916 µg/mL)
- solubility (pH 6.8, Solubility Conc.): 471 µM (≈ 1020 µg/mL)
- solubility (pH 7.1, Solubility Conc.): 494 µM (≈ 1070 µg/mL)
- solubility (pH 7.6, Solubility Conc.): 509 µM (≈ 1110 µg/mL)
- solubility (pH 7.8, Solubility Conc.): 507 µM (≈ 1100 µg/mL)

SMILES: CC(=O)N[C@H]1CNC(=O)CC[C@@H](C(=O)N2CCC[C@H]2C(=O)N2CCC[C@H]2C(=O)N[C@@H](CCCNC(=N)N)C(=O)N[C@@H](CC(=O)O)C(=O)N[C@@H](CCCCN(CC(=O)O)CC(=O)O)C(=O)N[C@@H](CCCCNC(=O)COCCOCCNC(=O)CCCCCCCCCCCCCCCc2nnn[nH]2)C(N)=O)NC(=O)[C@H](Cc2c[nH]c3ccccc23)NC(=O)[C@H](CCCNC(=N)N)NC(=O)[C@@H](Cc2ccccc2)NC(=O)[C@H](Cc2c[nH]cn2)NC1=O [Example 47, Ac-c[Dap-His-D-Phe-Arg-Trp-Glu]-Pro-Pro-Arg-Asp-Lys(biscarboxymethyl)-Lys[(2-{2-[16-(tetrazol-5-yl)hexadecanoylamino]ethoxy}ethoxy)acetyl]-NH2] (Ac-[Dap]H[dF]RWEPPRD[Lys(CH2CO2H)2]K([AEEA-Palmitoyl(16-(5-tetrazolyl))])-NH2; lactam 1-6)
- solubility (pH 6.4, Solubility Conc.): 24 µM (≈ 52.1 µg/mL)
- solubility (pH 6.9, Solubility Conc.): 56 µM (≈ 122 µg/mL)
- solubility (pH 7.1, Solubility Conc.): 103 µM (≈ 224 µg/mL)
- solubility (pH 7.2, Solubility Conc.): 219 µM (≈ 476 µg/mL)
- solubility (pH 7.3, Solubility Conc.): 366 µM (≈ 795 µg/mL)
- solubility (pH 7.5, Solubility Conc.): 379 µM (≈ 823 µg/mL)
- solubility (pH 7.6, Solubility Conc.): 371 µM (≈ 806 µg/mL)
- solubility (pH 7.9, Solubility Conc.): 493 µM (≈ 1070 µg/mL)
